{"source": "patent US10076491B2", "about": "“Vaccine composition” (NITTO DENKO CORPORATION, priority 2013, dated 2018)", "system": "IFN-γ-producing cells (spleen cells)", "test": "Mouse immunization test with cream formulation for transdermal administration, ELISPOT method (IFN-γ)", "assay_type": "in vivo", "conditions": "FIG. 1 / Table 2, combination with Th1 adjuvant imiquimod (IMQ), OVAp", "experimental": "Spleen cells (3×10^6 cells/well) and an antigen peptide (100 μM) or an antigen protein (100 μg/mL) together with the culturing medium were placed into a well of an ELISPOT plate on which an anti-mouse IFN-γ antibody had been immobilized. The plate was cultured for 20 hours under the condition of 37° C. and 5% CO2. The number of the spots representing IFN-γ-producing cells (spot number/3×10^6 cells) was evaluated by the ELISPOT method.\nMouse Immunization Test with Cream Formulation for Transdermal Administration\nMouse immunization test was performed with the cream formulations prepared as described above using a model animal for immunological evaluation. The immunity induction level was evaluated by ELISPOT method. Specifically, the hair of the back of the mouse was cut, and the mouse was kept until it recovered from the skin damage due to the hair cutting. After that, 4 mg of each cream formulation was applied to the skin of the back of the mouse for 24 hours, and then removed. After 6 days, the level of the cellular immunity induction specific for the antigen was evaluated. Six days after the administration, the spleen of the mouse was removed to prepare a suspension of spleen cells. […] The number of the spot representing IFN-γ producing cells (spot number/3×10^6 cells) was evaluated by ELISPOT method.", "data": [{"compound": "CC(C(=O)O)c1ccc(CC2CCCC2=O)cc1", "note": "(centres unmarked) [loxoprofen]", "values": [{"measurement": "effect of combination of Th2 cell differentiation inhibitor and Th1 adjuvant (ELISPOT)", "value": "synergistic effect"}]}, {"compound": "COc1ccc2cc3[n+](cc2c1OC)CCc1cc2c(cc1-3)OCO2", "note": "[berberine]", "values": [{"measurement": "effect of combination of Th2 cell differentiation inhibitor and Th1 adjuvant (ELISPOT)", "value": "synergistic effect"}]}]}
